Tests used:
[1] = test system: Erysiphe graminis f. sp. hordei; assay: Barley Powdery Mildew Foliar Assay (BPM Prot); assay type: in vivo; details: inoculation 24 hours after application
Description: A) Pathogen/Inoculum Production--Leaf material infected with the barley powdery mildew fungus, Erysiphe graminis f. sp. hordei, is maintained continuously on barley seedlings, cv. Perry.
B) Host Propagation--Barley seedlings, cv. Perry, are grown to second leaf stage in a commercial soil preparation, "Metro Mix 200", amended with 100 gm/ft^3 slow release "Osmocote 14-14-14". A sufficient number of seeds are planted per pot (5 cm in diameter) in order to insure the production of 3-5 vigorous seedlings per pot. The plants are maintained in a growth chamber set at 21° C., 80% RH with a 12 hour photoperiod. Light intensity is set at 300 me/m^2/ sec.
C) Test Compound Preparation
1) Experimental compounds--Each or the compounds of the present invention are applied at 500, 100, and 20 ppm. Formulation is generally in […], 59.95% water, and 0.05% Tween 20. Four pots (with 3-5 plants/pot) at each rate are treated. The application volume is 8 ml per treatment. Formulated materials, such as commercially available products, are brought up to the appropriate treatment volume with water containing Tween®20,05% v/v.
2) Controls and standards--The commercial standards used are Corbel® (active ingredient fenpropimorph) and NUSTAR® (active ingredient flusilazole), both at the rate of 20 and/or 10 ppm. A set of control plants, treated with the formulation blank and inoculated, are also included.
D) Compound Application--Compound is sprayed onto the leaves of the plants (pots positioned on a rotating table) using a DeVilbiss Model 152 hand sprayer. Coverage of the first leaf is essential. After the plants have thoroughly dried they are returned to the growth room and randomized.
E) Inoculation/Incubation--Inoculation of the test plants takes place 24 hours after compound application. Inoculation is accomplished by gently shaking plants previously infected with the Erysiphe graminis f. sp. hordeii fungus over the test plants. This process liberates a cloud of spores which effectively and uniformly fall onto the test plants. After inoculation the plants are returned to the environmental conditions under which they were grown.
F) Evaluation--The test is assessed 6-7 days after inoculation. Treatments are evaluated by visually estimating the percentage of the leaf area infected on the first leaf. Three ratings are made on each pot (replicate). Phytotoxicity and growth effects are also noted at this time.
G) Data--All replicate data is recorded as a percent disease value. Treatment means are calculated and percent disease control is determined by the formula: (control mean--treatment mean)*100/control mean. The inoculated control treatment mean is used for this calculation. The percent protection values for the compounds of the present invention are as set out in the Table below.

Septoria nodorum = assay: Wheat Glume Blotch Foliar Assay, protectant (WGB Prot); assay type: in vivo; details: application two days pre-inoculation
Description: A) Host Propagation--Winter wheat plants, cv. Caldwell, are grown in 5.7 cm^2 pots, three per pot, and maintained in a growth chamber set at 20° C., 80% RH with a 12 hour photoperiod.
B) Compound Preparation--A 1.0% stock solution of each of the compounds of the present invention is first prepared utilizing an appropriate solvent such as acetone, water or DMSO. This stock is then used to prepare the final spray solution which contains the compound at the desired dosage, eg 100 ppm and 20 ppm, acetone at 20% v/v, Tween®20 at .05% w/v, and water at about 80%. Commercial standard used is tebuconazole at equivalent rates.
C) Compound Application, Seedlings are sprayed at the two-leaf stage (GS 12) using a DeVilbiss Model 152 hand operated sprayer set at 15-20 psi. Six ml of the test solution per treatment are applied to three pots. In the protectant assay (EXAMPLE 8), the compound application is made two days pre-inoculation. In the curative assay (EXAMPLE 9), the compound is applied during a brief interruption of the disease incubation period two days post-inoculation.
D) Pathogen Production/Inoculation--The wheat glume blotch fungus, Septoria nodorum, is maintained in the pycnidial state on yeast malt agar (YMA) and transferred weekly by streaking a suspension of conidia obtained from a ten to twelve day old sporulating culture onto fresh YMA plates. The plates are incubated at 20° C. with a 12 hour photoperiod.
Test inoculum is prepared by flooding seven day old culture plates with deionized water amended with Tween®20 (0.1% v/v) and gently scraping the pycnidia to release the extruding masses of conidia. The resulting spore suspension is filtered through two layers of cheese cloth and adjusted to 4×10^6 spores/ml utilizing the Tween®20 solution.
Forty-eight hours after the compound application and prior to inoculation, the test plants are preconditioned for at least one hour in a dark growth chamber set at 20° C. and 100% RH. After the preconditioning period is over, the conidial suspension is applied to run-off using a DiVilbiss hand operated sprayer. The plants are then returned to the preconditioning chamber and incubated at the same settings for 96 hours. Light is supplied to the plants during the last twelve hours of incubation. At the end of the 96 hour period, the plants are returned to the environmental conditions under which they were grown.
E) Test Evaluation--Eight to ten days after removal from the high humidity chamber, or twelve to fourteen days after inoculation, treatments are evaluated by visually estimating the percentage of the leaf area (on the first leaf) covered with lesions. Three ratings are made on each pot which constitutes a replicate. Each replicate then receives a numerical mean by averaging the three values. Percent disease, as well as percent control values are calculated. The percent control values obtained from these assays for the compounds of the present invention are as set out in the Table below.

Structure (SMILES)	BPM Prot percent disease control ([1]; 20 ppm foliar) [%]	BPM Prot percent disease control ([1]; 100 ppm foliar) [%]	BPM Prot percent disease control ([1]; 500 ppm foliar) [%]	WGB Prot percent control (Septoria nodorum; 20 ppm, * = averaged value) [%]	WGB Prot percent control (Septoria nodorum; 100 ppm, * = averaged value) [%]	WGB Prot percent control (Septoria nodorum; 500 ppm, wheat) [%]
C[C@@H]1CCC[C@H](c2ccccc2NC(=O)c2cn(C)nc2C(F)F)C1 (relative stereo) [Number 2, 1H-pyrazole-4-carboxamide, 3-(difluoromethyl)-1-methyl-N-[2-(-3-methylcyclohexyl)phenyl]-, cis-]	90	96	85	56	86	99
C[C@H]1CCC[C@H](c2ccccc2NC(=O)c2cn(C)nc2C(F)F)C1 (relative stereo) [Number 3, 1H-pyrazole-4-carboxamide, 3-(difluoromethyl)-1-methyl-N-[2-(3-methylcyclohexyl)phenyl]-, trans-]	98	98		79	90	
Cn1cc(C(=O)Nc2ccccc2[C@@H]2CCC[C@@H](C(F)(F)F)C2)c(C(F)F)n1 (relative stereo) [Number 6]				70	86	89
CC[C@H]1CC[C@@H](c2ccccc2NC(=O)c2cn(C)nc2C(F)F)CC1 [Number 1, 1H-pyrazole-4-carboxamide, 3-(difluoromethyl)-N-[2-(4-ethylcyclohexyl)phenyl]-1-methyl-, cis-]			88			
Cn1cc(C(=O)Nc2ccccc2[C@H]2CC[C@H](C)CC2)c(C(F)(F)F)n1 [Number 4, 1H-pyrazole-4-carboxamide, 1-methyl-N-[2-(4-methylcyclohexyl)phenyl]-3-(trifluoromethyl)-, trans-]				81	97	
Cn1cc(C(=O)Nc2ccccc2C2CCC(C)(C)CC2)c(C(F)F)n1 [Number 5, 1H-pyrazole-4-carboxamide, 3-(difluoromethyl)-N-(2-(4,4-dimethylcyclohexyl)phenyl]-1-methyl-]				47	93	

From patent US5498624A, “Selected pyrazolyl derivatives” (Monsanto Company, priority 1995, dated 1996)
